This is an account of results in publication PMC9410764, “EmCyclinD-EmCDK4/6 complex is involved in the host EGF-mediated proliferation of Echinococcus multilocularis germinative cells via the EGFR-ERK pathway” (Frontiers in Microbiology, 2022).

The target in this assay is T1, EmCyclinD-EmCDK4/6 complex (Echinococcus multilocularis, UniProt A0A068YJR9).
T1 construct: gene EmuJ_001021000
T1 sequence (A0A068YJR9 1-711): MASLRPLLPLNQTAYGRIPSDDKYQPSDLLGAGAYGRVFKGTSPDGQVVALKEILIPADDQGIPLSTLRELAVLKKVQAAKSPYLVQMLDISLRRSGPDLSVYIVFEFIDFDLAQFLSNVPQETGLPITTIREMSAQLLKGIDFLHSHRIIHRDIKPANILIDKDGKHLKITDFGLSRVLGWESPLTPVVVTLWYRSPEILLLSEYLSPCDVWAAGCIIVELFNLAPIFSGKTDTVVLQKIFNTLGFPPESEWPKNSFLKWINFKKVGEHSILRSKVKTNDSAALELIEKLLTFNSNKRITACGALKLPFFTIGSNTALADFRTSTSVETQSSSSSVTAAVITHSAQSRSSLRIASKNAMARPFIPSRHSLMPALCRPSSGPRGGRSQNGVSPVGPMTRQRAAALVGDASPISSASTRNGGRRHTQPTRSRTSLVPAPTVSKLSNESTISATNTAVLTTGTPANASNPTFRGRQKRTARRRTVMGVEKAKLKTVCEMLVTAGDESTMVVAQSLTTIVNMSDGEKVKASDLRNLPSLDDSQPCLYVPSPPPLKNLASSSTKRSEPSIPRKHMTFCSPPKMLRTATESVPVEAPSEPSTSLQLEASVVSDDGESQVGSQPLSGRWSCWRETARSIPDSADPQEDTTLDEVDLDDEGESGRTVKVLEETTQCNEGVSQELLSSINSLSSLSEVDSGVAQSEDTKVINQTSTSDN
T1 sequence (A0A068Y4X2 1-386 partner): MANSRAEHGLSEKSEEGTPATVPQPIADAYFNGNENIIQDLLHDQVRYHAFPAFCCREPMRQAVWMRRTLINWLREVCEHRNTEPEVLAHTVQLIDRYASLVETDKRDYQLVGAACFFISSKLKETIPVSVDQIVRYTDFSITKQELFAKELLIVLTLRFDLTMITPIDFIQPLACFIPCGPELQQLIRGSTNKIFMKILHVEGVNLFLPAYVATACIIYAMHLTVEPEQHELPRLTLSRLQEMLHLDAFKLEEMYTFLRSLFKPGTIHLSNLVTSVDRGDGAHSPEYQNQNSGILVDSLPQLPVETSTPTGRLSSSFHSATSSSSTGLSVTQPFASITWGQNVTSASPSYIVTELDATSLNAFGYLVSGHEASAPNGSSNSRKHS
The note with it: human Rb1 substrate (3 ug); 25 uM ATP, 20 mM MgCl2, 1 mM DTT, pH 7.5, RT, 20 min.

Turning to `Nc1ncnc2c1ncn2[C@@H]1O[C@H](COP(=O)(O)OP(=O)(O)OP(=O)(O)O)[C@@H](O)[C@H]1O` [ATP], the kinase activity entry is recorded as “the EmCDK4/6-EmCyclinD complex displayed kinase activity against human Rb1”.
